Laboratory results published in patent US6703372B1, “Macrolides” (Biochemie S.A., priority 1999, dated 2004).
Where two headings read alike, the source gives them in different places.

Key:
[1] = normal air humidity conditions, within some hours, stated as known, cited from earlier work
[2] = stability of the crystalline structure (X-ray powder diffraction pattern) under normal air humidity conditions; assay type: physicochemical; conditions: kept for several weeks under normal air humidity conditions
Method: “Stable monohydrate” as used herein includes a compound of formula I in the form of a monohydrate which is crystalline and which maintains its crystalline structure for at least 24 hours, e.g. for several weeks, under normal, e.g. normal air humidity, conditions. The crystalline structure of azithromycin in the form of a monohydrate may be determined by its (known) X-ray powder diffraction pattern. The X-ray powder diffraction pattern and the IR spectrum of azithromycin in the form of a monohydrate obtained according to the following examples corresponding to that of known (unstable) azithromycin in the form of a monohydrate.

SMILES	stability of the crystal structure [1]	crystallinity and X-ray powder diffraction pattern on storage [2]	stability of the crystal structure ([1]; listed as azithromycin in the form of a monohydrate)
CC[C@H]1OC(=O)[C@H](C)[C@@H](O[C@H]2C[C@@](C)(OC)[C@@H](O)[C@H](C)O2)[C@H](C)[C@@H](O[C@@H]2O[C@H](C)C[C@H](N(C)C)[C@H]2O)[C@](C)(O)C[C@@H](C)CN(C)[C@H](C)[C@@H](O)[C@]1(C)O [azithromycin in the form of a dihydrate, 9-deoxo-9a-aza-9a-methyl-9a-homoerythromycin A, reference compound]	not to break down within some hours		
CC[C@H]1OC(=O)[C@H](C)[C@@H](O[C@H]2C[C@@](C)(OC)[C@@H](O)[C@H](C)O2)[C@H](C)[C@@H](O[C@@H]2O[C@H](C)C[C@H](N(C)C)[C@H]2O)[C@](C)(O)C[C@@H](C)CN(C)[C@H](C)[C@@H](O)[C@]1(C)O [9-deoxo-9a-aza-9a-methyl-9a-homoerythromycin A]		maintains its crystallinity and its X-ray powder diffraction pattern	unstable
